Laboratory results from patent US11401555B2, “Genetic polymorphisms associated with stroke, methods of detection and uses thereof” (CELERA CORPORATION, priority 2008, dated 2022).

Experiment: Stroke statin response (SSR) in the PROSPER pravastatin trial: pravastatin-treated versus placebo-treated, by SNP genotype
Type: in vivo, human
Source text: (hCV26505812) for association with SSR in CARE (Table 37) and PROSPER (Table 38), including both unadjusted and adjusted analyses (adjusted for factors such as age, gender, smoking status, hypertension, diabetes, BMI, and LDL and HDL levels). Table 37 provides results in CARE, and Table 38 provides results in PROSPER (whether each analysis is unadjusted or adjusted is indicated in the “adjust” column in Table 37, or by “unadj” and “adj” column labels in Tables 38). With respect to Tables 22-32 and 37-38, the columns labeled “Genotype” (in Tables 22-28 and 37), “Geno_Placebo” (in Tables 29-30 and 38), and “Geno_Resp” (in Tables 31-32 and 38) indicate the genotype which the given stroke risk or SSR results correspond to. […] In Tables 29-32 and 38, the columns labeled “LOWER_PLACEBO” and “UPPER_PLACEBO” (Tables 29-30 and 38), and “LOWER_RESP” and “UPPER_RESP” (Tables 31-32 and 38), refer to the lower and upper 95% confidence intervals for the hazard ratios. See Example Six below for further information relating to Tables 22-32 and 37-38. […] As used herein, the term “benefit” (with respect to a preventive or therapeutic drug treatment) is defined as achieving a reduced risk for a disease that the drug is intended to treat or prevent (e.g., stroke) by administrating the drug treatment, compared with the risk for the disease in the absence of receiving the drug treatment (or receiving a placebo in lieu of the drug treatment) for the same genotype. The term “benefit” may be used herein interchangeably with terms such as “respond positively” or “positively respond”. For stroke risk and statin response associations based on samples from the CARE and PROSPER trials described herein, stroke risk is assessed by comparing the risk of stroke for a given genotype with the risk of stroke for a reference genotype either in the placebo arm of the trial or in the whole study population of the trial, and statin response is assessed by comparing the risk of stroke in the pravastatin arm of the trial with the risk of stroke in the placebo arm of the trial for the same genotype. […] Example Five above describes the analysis of these 61 SNPs plus 17 additional SNPs in the German West Study. […] In PROSPER, SNPs were analyzed for association with stroke risk or SSR, in the whole study cohort (strata: “ALL”), or in the subgroup with a history of CVD (strata: “hist”) or without a CVD history (strata: “no hist”). […] Also in the CARE and PROSPER trials, the chromosome 9p21 SNP […] (hCV26505812) was analyzed further for association with SSR, including unadjusted and adjusted analysis. Adjusted analysis in CARE (Table 37) was adjusted for age, gender, smoking status, hypertension, diabetes, body mass index (BMI), and LDL and HDL levels, and adjusted analysis in PROSPER (Table 38) was adjusted for country, gender, age, LDL, HDL, smoking status (current vs. past or never), history of hypertension, and diabetes. Table 37 provides results in CARE, and Table 38 provides results in PROSPER (whether each analysis is unadjusted or adjusted is indicated in the “adjust” column in Table 37, or by “unadj” and “adj” column labels in Tables 38). All the p-values (including Pint values) provided in Tables 37-38 are two-sided p-values.

[1] = hCV2169762 rs1804689 HPS1, GENO_RESP GG, MODE GEN, STRATA no hist
[2] = hCV2169762 rs1804689 HPS1, GENO_RESP GT, MODE GEN, STRATA hist
[3] = hCV2169762 rs1804689 HPS1, GENO_RESP GT, MODE GEN, STRATA no hist
[4] = hCV2169762 rs1804689 HPS1, GENO_RESP TT, MODE GEN, STRATA no hist
[5] = hCV2442143 rs12544854 ASAH1, GENO_RESP CC + CT, MODE REC, STRATA no hist
[6] = hCV2442143 rs12544854 ASAH1, GENO_RESP TT + CT, MODE DOM, STRATA hist
[7] = hCV26505812 rs10757274 C9p21, GENO_RESP AA, MODE GEN, STRATA ALL
[8] = hCV26505812 rs10757274 C9p21, GENO_RESP AA, MODE GEN, STRATA no hist
[9] = hCV26505812 rs10757274 C9p21, GENO_RESP AG, MODE GEN, STRATA ALL
[10] = hCV26505812 rs10757274 C9p21, GENO_RESP AG, MODE GEN, STRATA no hist
[11] = hCV26505812 rs10757274 C9p21, GENO_RESP GG + AG, MODE DOM, STRATA ALL
[12] = hCV26505812 rs10757274 C9p21, GENO_RESP GG + AG, MODE DOM, STRATA no hist
[13] = hCV26505812 rs10757274 C9p21, GENO_RESP GG, MODE GEN, STRATA ALL
[14] = hCV26505812 rs10757274 C9p21, GENO_RESP GG, MODE GEN, STRATA no hist
[15] = hCV27511436 rs3750145 FZD1, GENO_RESP CC + CT, MODE DOM, STRATA no hist
[16] = hCV27511436 rs3750145 FZD1, GENO_RESP CC, MODE GEN, STRATA no hist
[17] = hCV27511436 rs3750145 FZD1, GENO_RESP CT, MODE GEN, STRATA no hist
[18] = hCV27511436 rs3750145 FZD1, GENO_RESP TT, MODE GEN, STRATA no hist
[19] = hCV27830265 rs12762303 ALOX5, GENO_RESP GG + AG, MODE DOM, STRATA no hist
[20] = hCV29539757 rs10110659 KCNQ3, GENO_RESP AA, MODE GEN, STRATA hist
[21] = hCV29539757 rs10110659 KCNQ3, GENO_RESP AC, MODE GEN, STRATA hist
[22] = hCV29539757 rs10110659 KCNQ3, GENO_RESP CC, MODE GEN, STRATA hist

What does the source list for `CC[C@H](C)C(=O)O[C@H]1C[C@H](O)C=C2C=C[C@H](C)[C@H](CC[C@@H](O)C[C@@H](O)CC(=O)O)[C@H]21` [pravastatin]?
HR_RESP (hazard ratio, pravastatin-treated versus placebo-treated) (hCV2169762 rs1804689 HPS1, GENO_RESP GG, MODE GEN, STRATA hist): 1.104; EVENTS_RESP [1]: 30; HR_RESP (hazard ratio, pravastatin-treated versus placebo-treated) [1]: 0.659; EVENTS_RESP [2]: 47; HR_RESP (hazard ratio, pravastatin-treated versus placebo-treated) [2]: 0.9425; EVENTS_RESP [3]: 47; HR_RESP (hazard ratio, pravastatin-treated versus placebo-treated) [3]: 1.268; EVENTS_RESP (hCV2169762 rs1804689 HPS1, GENO_RESP TT + GT, MODE DOM, STRATA no hist): 57; HR_RESP (hazard ratio, pravastatin-treated versus placebo-treated) (hCV2169762 rs1804689 HPS1, GENO_RESP TT, MODE GEN, STRATA hist): 0.3365; EVENTS_RESP [4]: 10; HR_RESP (hazard ratio, pravastatin-treated versus placebo-treated) [4]: 1.275; EVENTS_RESP [5]: 72; HR_RESP (hazard ratio, pravastatin-treated versus placebo-treated) [5]: 1.087; EVENTS_RESP [6]: 88; HR_RESP (hazard ratio, pravastatin-treated versus placebo-treated) [6]: 1.043; EVENTS_RESP [7]: 56; HR_RESP (hazard ratio, pravastatin-treated versus placebo-treated) [7]: 1.33; EVENTS_RESP [8]: 28; HR_RESP (hazard ratio, pravastatin-treated versus placebo-treated) [8]: 1.57; EVENTS_RESP [9]: 94; HR_RESP (hazard ratio, pravastatin-treated versus placebo-treated) [9]: 0.7769; EVENTS_RESP [10]: 35; HR_RESP (hazard ratio, pravastatin-treated versus placebo-treated) [10]: 0.6977; EVENTS_RESP [11]: 145; HR_RESP (hazard ratio, pravastatin-treated versus placebo-treated) [11]: 0.8638; EVENTS_RESP [12]: 59; HR_RESP (hazard ratio, pravastatin-treated versus placebo-treated) [12]: 0.8132; EVENTS_RESP [13]: 51; HR_RESP (hazard ratio, pravastatin-treated versus placebo-treated) [13]: 1.082; EVENTS_RESP [14]: 24; HR_RESP (hazard ratio, pravastatin-treated versus placebo-treated) [14]: 1.068; EVENTS_RESP [15]: 27; HR_RESP (hazard ratio, pravastatin-treated versus placebo-treated) [15]: 1.388; EVENTS_RESP [16]: 1; HR_RESP (hazard ratio, pravastatin-treated versus placebo-treated) [16]: 0.3492; EVENTS_RESP [17]: 26; HR_RESP (hazard ratio, pravastatin-treated versus placebo-treated) [17]: 1.575; EVENTS_RESP [18]: 60; HR_RESP (hazard ratio, pravastatin-treated versus placebo-treated) [18]: 0.8524; EVENTS_RESP [19]: 25; HR_RESP (hazard ratio, pravastatin-treated versus placebo-treated) [19]: 1.479; EVENTS_RESP [20]: 7; HR_RESP (hazard ratio, pravastatin-treated versus placebo-treated) [20]: 0.4115; EVENTS_RESP [21]: 44; HR_RESP (hazard ratio, pravastatin-treated versus placebo-treated) [21]: 0.9946; EVENTS_RESP (hCV29539757 rs10110659 KCNQ3, GENO_RESP CC + AC, MODE REC, STRATA hist): 106; EVENTS_RESP [22]: 62; HR_RESP (hazard ratio, pravastatin-treated versus placebo-treated) [22]: 1.016
